Experimental findings from US8742106B2 (Novartis AG, priority 2009, dated 2014) are described below.

Assay [1] addresses T1, human orexin 2 receptors (Homo sapiens (Human), UniProt O43614). The experiment in a line: Radioligand Binding Assay II ([3H]-SB649868 competition, cell membranes). The settings on record: read-out: binding II hOx2R Kd. On the procedure: (§1) Radioligand Binding Assay II
(§2) For crude cell membrane preparations, cells (CHO, Chinese hamster ovary or HEK, human embryonic kidney) expressing human orexin 1 or human orexin 2 receptors, were washed with HEPES (10 mM, pH 7.5), scraped off the culture plates with the same buffer, and centrifuged at 4° C. for 5 min at 2500×g. The cell pellet was either stored at −80° C. or used directly. Before the experiments, cell membranes were re-suspended in binding assay buffer (10 mM HEPES, 0.5% (w/v) bovine serum albumin, pH 7.5) by homogenisation with a Polytron homogeniser at 50 Hz for 20 s. Cell membranes were also used as made available by commercial providers.
(§3) Bound radioactivity was measured, and data were analysed with the program XLFIT or Graphpad Prism. Protein concentration was determined according to the Bradford/BioRad Protein Assay Kit.
(§4) In competition experiments, cell homogenates (150 μl) were incubated in assay buffer (10 mM HEPES, pH 7.5, 0.5% (w/v) bovine serum albumin, 5 mM MgCl2, 1 mM CaCl2, and tween 0.05%) for 1 h at room temperature with about 1 nM of the radioligand [^3H]-SB649868, 66 Ci/mmole, 50 μl), and with various concentrations of compounds of the invention (50 μl) in triplicates; non-specific binding was determined in the presence of almorexant (10 μM). Reactions were terminated by vacuum filtration, 3 washes of ice cold wash buffer (Tris-HCl pH 7.4/10 mM, with NaCl 154 mM).

For assay [2], the target named is T2, human orexin 1 receptors (Homo sapiens (Human), UniProt O43613). In words: Calcium Accumulation in Cells (FLIPR), antagonism of orexin A. The settings on record: for Ki: antagonism of orexin A, Cheng-Prusoff corrected, read-out: FLIPR hOx1R Ki; for inhibition at 10 µM: measured at a concentration of 10 μM of compound, read-out: FLIPR hOx1R % inhibition value. The assay is classed as cell-based.
T2 sequence (O43613 whole entry): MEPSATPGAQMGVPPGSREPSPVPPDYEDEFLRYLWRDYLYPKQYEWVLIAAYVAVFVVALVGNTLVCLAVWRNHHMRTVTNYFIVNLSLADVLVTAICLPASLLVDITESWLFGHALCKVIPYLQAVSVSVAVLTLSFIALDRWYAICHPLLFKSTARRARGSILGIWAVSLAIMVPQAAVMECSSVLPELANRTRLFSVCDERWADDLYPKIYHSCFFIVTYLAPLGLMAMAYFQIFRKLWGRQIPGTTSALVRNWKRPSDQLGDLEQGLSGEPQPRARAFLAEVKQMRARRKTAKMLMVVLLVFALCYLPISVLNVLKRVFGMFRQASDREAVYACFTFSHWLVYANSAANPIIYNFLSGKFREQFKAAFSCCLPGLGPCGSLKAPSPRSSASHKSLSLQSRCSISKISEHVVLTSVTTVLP

For assay [3], the target named is T2, human orexin 1 receptors. The experiment in a line: Radioligand Binding Assay II ([3H]-SB649868 competition, cell membranes). The settings on record: read-out: binding II hOx1R Kd. As to the method: as §1, §2, §3
as §4, with “mM). Competition data is expressed in Table 2 as Kd [μM].” for “mM).”

The target in assay [4] is T1, human orexin 2 receptors. In words: Calcium Accumulation in Cells (FLIPR), antagonism of orexin A. The assay is classed as cell-based. To be noted: for Ki: antagonism of orexin A, Cheng-Prusoff corrected, read-out: FLIPR hOx2R Ki; for inhibition at 10 µM: measured at a concentration of 10 μM of compound, read-out: FLIPR hOx2R % inhibition value. The method in brief:
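Cells expressing human orexin 2 receptor, loaded with Fluo4-AM (2 μM) plus probenecid (0.1 mM) for 1 h, then washed. Antagonism read as inhibition of the orexin A calcium fluorescence signal (FLIPR).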

Molecules are shown by their SMILES. Where only a bound is given, the exact number is not on record here.

T1 sequence (O43614 whole entry): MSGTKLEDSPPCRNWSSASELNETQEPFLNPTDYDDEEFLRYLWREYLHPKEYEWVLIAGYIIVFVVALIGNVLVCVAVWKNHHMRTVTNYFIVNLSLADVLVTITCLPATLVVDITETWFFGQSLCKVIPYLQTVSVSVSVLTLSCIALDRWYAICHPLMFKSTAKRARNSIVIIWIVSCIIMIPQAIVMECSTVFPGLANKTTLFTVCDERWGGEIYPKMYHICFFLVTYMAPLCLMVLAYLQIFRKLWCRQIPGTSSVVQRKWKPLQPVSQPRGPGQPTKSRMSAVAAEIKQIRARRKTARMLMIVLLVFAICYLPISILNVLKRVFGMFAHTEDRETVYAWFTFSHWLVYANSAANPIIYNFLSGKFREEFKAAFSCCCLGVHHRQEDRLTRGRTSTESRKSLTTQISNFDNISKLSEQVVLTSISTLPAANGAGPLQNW

Broadly, the Kd is the concentration at which binding is half-saturated. Broadly, the Ki is the equilibrium dissociation constant of an inhibitor or competing ligand from its target. `COc1ccc([C@H](C)NC(=O)COc2cc(C(F)F)c3c(-c4cc(C)oc4C)nn(C)c3n2)cc1` [Example 6.39, (S)-2-(4-(difluoromethyl)-3-(2,5-dimethylfuran-3-yl)-1-methyl-1H-pyrazolo[3,4-b]pyridin-6-yloxy)-N-(1-(4-methoxyphenyl)ethyl)acetamide]: the Kd in assay [1] worked out at 65 nM; in assay [3], 20 nM. The Ki in assay [2] worked out at 15 nM; in assay [4], 46 nM.
With `COc1ccc([C@H](C)NC(=O)COc2cc(C)c3c(-c4cc(OC)cc(OC)c4)nn(C)c3n2)cc1` [Example 6.36, (S)-2-(3-(3,5-dimethoxyphenyl)-1,4-dimethyl-1H-pyrazolo[3,4-b]pyridin-6-yloxy)-N-(1-(4-methoxyphenyl)ethyl)acetamide], the figures for the dissociation constant Kd in assay [1] and in assay [3] were 498 nM and 19 nM, respectively. The inhibition constant Ki in assay [4] amounted to 323 nM.
Consider `Cc1ccc([C@H](C)NC(=O)COc2cc(C)c3c(C4CC4)nn(C)c3n2)cc1` [Example 7.11, (S)-2-(3-cyclopropyl-1,4-dimethyl-1H-pyrazolo[3,4-b]pyridin-6-yloxy)-N-(1-p-tolylethyl)acetamide], for which the dissociation constant (Kd) turned out to be 17 nM in assay [1] and 18 nM in assay [3]. For the same compound, the values for the inhibition constant (Ki) in assay [2] and in assay [4] were 50 nM and 24 nM, respectively.
In the same order, the values of `Cc1ccc([C@H](C)NC(=O)COc2cc(C)c3c(-c4ncco4)nn(C)c3n2)cc1` [Example 4.2, (S)-2-(1,4-dimethyl-3-(oxazol-2-yl)-1H-pyrazolo[3,4-b]pyridin-6-yloxy)-N-(1-p-tolylethyl)acetamide] are 17 nM, 10 nM, 67 nM and 32 nM.
In the same order, the values of `Cc1ccc([C@H](C)NC(=O)COc2cc(C(F)(F)F)c3c(C4CC4)nn(C)c3n2)cc1` [Example 6.13, (S)-2-(3-cyclopropyl-1-methyl-4-(trifluoromethyl)-1H-pyrazolo[3,4-b]pyridin-6-yloxy)-N-(1-p-tolylethyl)acetamide] are 14 nM, 44 nM, 52 nM and 6 nM.
In the same order, the values of `COc1ccc([C@H](C)NC(=O)COc2cc(C(F)(F)F)c3c(C4CC4)nn(C)c3n2)cc1` [Example 6.15, (S)-2-(3-cyclopropyl-1-methyl-4-(trifluoromethyl)-1H-pyrazolo[3,4-b]pyridin-6-yloxy)-N-(1-(4-methoxyphenyl)ethyl)acetamide] are 37 nM, 146 nM, 160 nM and 12 nM.
For `Cc1ccc2c(n1)CC[C@@H]2NC(=O)COc1cc(C(F)(F)F)c2c(-c3cc(C)oc3C)nn(C)c2n1` [Example 6.79, (S)-2-(3-(2,5-dimethylfuran-3-yl)-1-methyl-4-(trifluoromethyl)-1H-pyrazolo[3,4-b]pyridin-6-yloxy)-N-(2-methyl-6,7-dihydro-5H-cyclopenta[b]pyridin-5-yl)acetamide], the Kd was 90 nM in assay [1] and 34 nM in assay [3]. The Ki stood at 23 nM in assay [2] and 7 nM in assay [4].
For `Cc1ccc([C@H](C)NC(=O)COc2cc(C)c3c(-c4nc(C)cs4)nn(C)c3n2)cc1` [Example 5.1, (S)-2-((1,4-dimethyl-3-(4-methylthiazol-2-yl)-1H-pyrazolo[3,4-b]pyridin-6-yl)oxy)-N-(1-(p-tolyl)ethyl)acetamide], in that order: 3 nM, 4 nM, 10 nM and 10 nM.
In the same order, the values of `COc1ccc(C(C)NC(=O)COc2cc(C(F)(F)F)c3c(C4CC4)nn(C)c3n2)cn1` (centres unmarked) [Example 6.14, 2-(3-cyclopropyl-1-methyl-4-(trifluoromethyl)-1H-pyrazolo[3,4-b]pyridin-6-yloxy)-N-(1-(6-methoxypyridin-3-yl)ethyl)acetamide] are 141 nM, 428 nM, 523 nM and 72 nM.
In the same order, the values of `COc1ccc2c(c1)CC[C@@H]2NC(=O)COc1cc(C(F)F)c2c(C3CC3)nn(C)c2n1` [Example 6.42, (S)-2-(3-cyclopropyl-4-(difluoromethyl)-1-methyl-1H-pyrazolo[3,4-b]pyridin-6-yloxy)-N-(5-methoxy-2,3-dihydro-1H-inden-1-yl)acetamide] are 14 nM, 63 nM, 83 nM and 10 nM.
Turning to `COc1ccc([C@H](C)NC(=O)COc2cc(C)c3c(-c4ccoc4C)nn(C)c3n2)cc1` [Example 6.34, (S)-2-(1,4-dimethyl-3-(2-methylfuran-3-yl)-1H-pyrazolo[3,4-b]pyridin-6-yloxy)-N-(1-(4-methoxyphenyl)ethyl)acetamide], the Kd in assay [1] was 188 nM; in assay [3], 70 nM. The Ki in assay [2] was found to be 103 nM; in assay [4], 113 nM.
For `COc1nc(-c2nn(C)c3nc(OCC(=O)N[C@@H](C)c4ccc(C)cc4)cc(C)c23)cs1` [Example 5.5, (S)-2-(3-(2-methoxythiazol-4-yl)-1,4-dimethyl-1H-pyrazolo[3,4-b]pyridin-6-yloxy)-N-(1-p-tolylethyl)acetamide], in that order: 37 nM, 15 nM, 21 nM and 28 nM.
In the same order, the values of `Cc1ccc([C@H](C)NC(=O)COc2cc(C)c3c(-c4ccc(C)cn4)nn(C)c3n2)cc1` [Example 4.9, (S)-2-(1,4-dimethyl-3-(5-methylpyridin-2-yl)-1H-pyrazolo[3,4-b]pyridin-6-yloxy)-N-(1-p-tolylethyl)acetamide] are 19 nM, 14 nM, 12 nM and 5 nM.
In the same order, the values of `Cc1ccc([C@H](C)NC(=O)COc2cc(C)c3c(-c4ncc(C)s4)nn(C)c3n2)cc1` [Example 5.6, (S)-2-(1,4-dimethyl-3-(5-methylthiazol-2-yl)-1H-pyrazolo[3,4-b]pyridin-6-yloxy)-N-(1-p-tolylethyl)acetamide] are 3 nM, 4 nM, 6 nM and 5 nM.
In the case of `COc1ccc2c(c1)CC[C@@H]2NC(=O)COc1cc(C)c2c(C3CC3)nn(C)c2n1` [Example 6.5, (S)-2-(3-cyclopropyl-1,4-dimethyl-1H-pyrazolo[3,4-b]pyridin-6-yloxy)-N-(5-methoxy-2,3-dihydro-1H-inden-1-yl)acetamide], the inhibition constant (Ki) in assay [2] amounted to 152 nM. Besides, the Kd in assay [3] came out at 67 nM.
With `COc1ccc2c(c1)CCC2NC(=O)COc1cc(C)c2c(C3CC3)nn(C)c2n1` (centres unmarked) [Example 6.3, 2-(3-cyclopropyl-1,4-dimethyl-1H-pyrazolo[3,4-b]pyridin-6-yloxy)-N-(5-methoxy-2,3-dihydro-1H-inden-1-yl)acetamide], the inhibition constant (Ki) in assay [2] was determined as 192 nM. Further, the Kd in assay [3] came out at 101 nM.
What is called inhibition is how much of the control response was suppressed. On to `Cc1cc(OCC(=O)NCCc2c[nH]c3ccccc23)nc2c1c(C1CC1)nn2C` [Example 7.5, N-(2-(1H-indol-3-yl)ethyl)-2-(3-cyclopropyl-1H-dimethyl-1H-pyrazolo[3,4-b]pyridin-6-yloxy)acetamide], for which, in assay [2], the inhibition at 10 µM was < 10%. Also, the Ki in assay [4] was 479 nM.
With `Cc1cc(OCC(=O)NC(C)c2cnn(C)c2)nc2c1c(C1CC1)nn2C` (centres unmarked) [Example 7.20, 2-(3-cyclopropyl-1,4-dimethyl-1H-pyrazolo[3,4-b]pyridin-6-yloxy)-N-(1-(1-methyl-1H-pyrazol-4-yl)ethyl)acetamide], the inhibition at 10 µM in assay [2] was 34%; in assay [4] it was 31%.
`COc1ccc([C@H](C)NC(=O)COc2nc3c(cc2C)c(C2CC2)nn3C)cc1` [Example 6.76, (S)-2-(3-cyclopropyl-1,5-dimethyl-1H-pyrazolo[3,4-b]pyridin-6-yloxy)-N-(1-(4-methoxyphenyl)ethyl)acetamide]: the inhibition at 10 µM in assay [2] stood at 23%; in assay [4], 34%.
